Experiment in all cases: inhibition of tumour cell growth, NCI panel, 48 h
The test system of test [1] is SF-268 CNS.
Test [2] concerns A549 NSCLC.
Test [3] deals with OVCAR-5 ovarian.
Test [4] concerns NCI-H460 lung.
Test [5] concerns U251 CNS.
Test [6] concerns NCI-H23 lung.
Test [7] concerns K-562 leukemia.
Test [8] relates to UACC-257 melanoma.
Test [9] deals with KM12 colon.
In test [10] the test system is HCT-116 colon.
The test system of test [11] is SF-539 CNS.
The subject of test [12] is SW-620 colon.
Test [13] concerns SF-295 CNS.
For test [14], the system named is OVCAR-3 ovarian.
The test system of test [15] is SK-OV-3 ovarian.
Test [16] deals with SK-MEL-2 melanoma.
Test [17] relates to UACC-62 melanoma.
In test [18] the test system is A498 renal.
In test [19] the test system is MALME-3M melanoma.
Test [20] has as its system LOX IMVI melanoma.

The values below come from PubChem BioAssay (NCI).

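Five concentrations, 48 hours, 96-well plates. TGI marks complete inhibition of growth.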

In the case of `Nc1c2c(=O)[nH]c(=O)c2c(N)c2c(=O)c3ccccc3c(=O)c12`, the TGI in [1] is 15.5 µM; in test [2], above 23.1 µM; in test [3], 3.42 µM; in [4] it was 2.52 µM; in [5], above 90 µM; in [6], 3.17 µM. In addition, the TGI is above 45.9 µM in [7]; 3.17 µM in test [8]; 7.56 µM in test [9]; above 100 µM in [10]; 4.52 µM in [11]; 4.65 µM in test [12]. For the same compound, the TGI in [13] amounted to 3.07 µM; in test [14] it was 4.31 µM; in test [15], 32.9 µM; in [16] it was 6.2 µM; in test [17], 3.25 µM; in test [18] it was 2.85 µM. This compound yielded a TGI in [19] of 0.581 µM.

On to `O=C(CNc1cccc([N+](=O)[O-])c1)Nn1c(-c2ccccc2)nc2ccccc2c1=O`, for which the TGI in test [1] came out at 4.22 µM; in test [2], 4.9 µM; in test [3], 3.46 µM; in test [5], 2.88 µM; in test [6], 9.32 µM; in test [8], 11.8 µM. For the same compound, the TGI in [20] is 0.663 µM; in test [9], 4.42 µM; in [10] it was 2.09 µM; in test [11], 4.7 µM; in test [12], 2.05 µM; in test [13] it was 3.28 µM. The TGI in test [14] was 5.15 µM; in [15], 2.04 µM; in test [17], 0.608 µM; in test [18], 0.274 µM; in test [19], 2.41 µM.

Take `C=CC[N+]12CN3CN(CN(C3)C1)C2`: the TGI was 72.3 µM in test [1]; above 100 µM in test [2]; 95.5 µM in [3]; 54.7 µM in test [4]; above 100 µM in test [5]; 52.8 µM in test [6]. The TGI is above 100 µM in [7]; 61.7 µM in test [8]; 83 µM in test [20]; 66.8 µM in [9]; 58.2 µM in [10]; 40.6 µM in test [11]. Also, the TGI in test [12] was above 100 µM; in test [13] it was above 100 µM; in test [14] it was above 100 µM; in [15], above 100 µM; in [16], above 100 µM; in test [17], 80.2 µM. In addition, the figures for the TGI in test [18] and in [19] were 94.1 µM and 45.2 µM, respectively.

As to `CC(C)=CCNc1ncnc2nc[nH]c12`, the TGI in test [1], in [2], in test [3], in test [4], in test [5] and in test [6] was above 100 µM in each case. The TGI in test [7], in test [8], in [20], in test [9], in test [10] and in test [11] was above 100 µM in each case. Moreover, the TGI in test [12], in test [13], in test [14], in test [15], in [16] and in test [17] was above 100 µM throughout. For the same compound, the TGI in [18] and in [19] was above 100 µM each time.

With `N#CN=C(N)NC(=O)/C=C/C=C/c1ccc(Cl)cc1`, the TGI in test [1], in [2], in test [3], in test [4], in [5] and in [6] was above 100 µM throughout. Further, the TGI was above 100 µM in test [7]; above 100 µM in test [8]; above 100 µM in test [20]; above 100 µM in test [9]; above 100 µM in test [10]; 50.4 µM in test [11]. In addition, the TGI in test [12], in [13], in test [14], in test [15], in test [16] and in [17] was above 100 µM in each case. Moreover, the TGI in test [18] and in test [19] was above 100 µM in each case.

With `COC(=O)Nc1nc2cc(OC)c(OC)cc2c(=O)[nH]1`, the TGI in test [1], in [2], in test [3], in [4], in [5] and in test [6] was above 100 µM throughout. The TGI in [7], in [8], in [9], in test [10], in test [11] and in [12] was above 100 µM throughout. Also, the TGI in test [13] was 37 µM; in [14], above 100 µM; in test [15], above 100 µM; in test [16], above 100 µM; in test [17] it was above 100 µM; in [18], above 100 µM. This compound displayed a TGI in test [19] above 100 µM.

For `O=C1c2ccccc2C(=O)c2c(Nc3ccc4c5c(cccc35)C(=O)c3ccccc3-4)cccc21`, the TGI in [1], in test [2], in [3], in test [4], in test [5] and in [6] was above 100 µM in each case. In addition, the TGI in test [7], in test [8], in test [20], in test [9], in test [10] and in test [12] was above 100 µM in each case. Further, the TGI in [13], in [14], in test [16], in [17], in test [18] and in test [19] was above 100 µM each time.
